Tested on: SF126 (human glioblastoma multiforme cell)
Assay: Cell viability assay (Promega CellTiter-Glo), inhibitory effect on SF126
Assay type: cell-based
Conditions: 72 h, SF-126, 3 days of culture, Table 3, read-out: inhibitory effect on SF-126 (IC50)
Protocol: (§1) The inhibitory effect of the compounds prepared in the Examples of the present invention on various tumor cell lines was detected using cell viability assay reagent.
(§2) Cell viability was detected using the Promega CellTiter-Glo kit, cell viability was determined by directly measuring intracellular ATP content. In the experiment, the ICso value of the compounds prepared in the Examples of the present invention on various tumor cell lines was detected.
(§3) Each tumor cell was cultured in relevant medium. After cell passage, the gradient diluted compounds prepared in the Examples of the present invention was added. After 3 days of culture, the relevant IC50 (50% inhibiting concentration) was measured. The name, source and culture conditions of each tumor cell line were as follows:
Cell line SF126 (JCRB, No. IFO50286) was cultured in 10% fetal bovine serum-containing EMEM medium (+P/S).
(§4) The inhibitory effect of the compounds prepared in the Examples of the present invention on various brain tumor cell lines was detected using cell viability assay reagent.
(§5) Cell viability was detected using the Promega CellTiter-Glo kit, cell viability was determined by directly measuring intracellular ATP content. In the experiment, the IC50 value of the compounds prepared in the Examples of the present invention on various brain tumor cell lines was detected.

Q: Which IC50 does the source give for `COc1ccc2c(CCc3ccccc3)c3[n+](cc2c1OC)CCc1cc2c(cc1-3)OCO2` [compound AB31780] here?
A: Its IC50 is 9750 nM.

Q: For `COc1ccc2c(CCCc3ccccc3)c3[n+](cc2c1OC)CCc1cc2c(cc1-3)OCO2` [compound AB31781], which IC50 is on record?
A: Its IC50 is 7480 nM.

Same assay, conditions: SF-126, 72 h, SF126, 3 days of culture, Table 4, read-out: inhibitory effect on brain cell line SF126 (IC50)

Q: With `COc1ccc2c(CCc3ccccc3)c3[n+](cc2c1OC)CCc1cc2c(cc1-3)OCO2` [compound AB31780] as the compound, how does the IC50 read?
A: Its IC50 is 9750 nM.

Q: For `COc1ccc2c(CCCc3ccccc3)c3[n+](cc2c1OC)CCc1cc2c(cc1-3)OCO2` [compound AB31781], which IC50 is on record?
A: Its IC50 is 7480 nM.

Tested on: NB-1 (brain neuroblastoma cell)
Assay: Cell viability assay (Promega CellTiter-Glo), inhibitory effect on NB-1
Assay type: cell-based
Conditions: Homo sapiens, 72 h, 3 days of culture, read-out: inhibitory effect on brain cell line NB-1 (IC50)
Protocol: as §4, §5, §3
Cell line NB-1 (ATCC, No. HTB-131) was cultured in 10% fetal bovine serum-containing Leibovitz's L-15 medium (+P/S).

Q: With `COc1ccc2c(CCc3ccccc3)c3[n+](cc2c1OC)CCc1cc2c(cc1-3)OCO2` [compound AB31780] as the compound, how does the IC50 read?
A: The IC50 was 230 nM.

Q: For `COc1ccc2c(CCCc3ccccc3)c3[n+](cc2c1OC)CCc1cc2c(cc1-3)OCO2` [compound AB31781], which IC50 is on record?
A: Its IC50 is 140 nM.

Tested on: NCI-H82 (human small cell lung cancer cell)
Assay: Cell viability assay (Promega CellTiter-Glo), inhibitory effect on NCI-H82
Assay type: cell-based
Conditions: 72 h, 3 days of culture
Protocol: as §1, §2, §3
Cell line NCI-H82 (ATCC, No. HTB-175) was cultured in 10% fetal bovine serum-containing RPMI1640 medium (+P/S).

Q: For `COc1ccc2c(CCc3ccccc3)c3[n+](cc2c1OC)CCc1cc2c(cc1-3)OCO2` [compound AB31780], which IC50 is on record?
A: The IC50 was 660 nM.

Q: How did the IC50 turn out when `COc1ccc2c(CCCc3ccccc3)c3[n+](cc2c1OC)CCc1cc2c(cc1-3)OCO2` [compound AB31781] was run?
A: Its IC50 is 330 nM.

Tested on: Kelly (brain neuroblastoma cell)
Assay: Cell viability assay (Promega CellTiter-Glo), inhibitory effect on Kelly
Assay type: cell-based
Conditions: Homo sapiens, 72 h, 3 days of culture, read-out: inhibitory effect on brain cell line Kelly (IC50)
Protocol: as §4, §5, §3
Cell line Kelly (ECACC, No. 92110411) was cultured in 10% fetal bovine serum and 2 mM glutamine-containing RPMI1640 medium.

Q: Which IC50 does the source give for `COc1ccc2c(CCc3ccccc3)c3[n+](cc2c1OC)CCc1cc2c(cc1-3)OCO2` [compound AB31780] here?
A: Its IC50 is 1160 nM.

Q: Which IC50 does the source give for `COc1ccc2c(CCCc3ccccc3)c3[n+](cc2c1OC)CCc1cc2c(cc1-3)OCO2` [compound AB31781] here?
A: Its IC50 is 730 nM.

Tested on: G-401 (human renal carcinoma Wilms cell)
Assay: Cell viability assay (Promega CellTiter-Glo), inhibitory effect on G-401
Assay type: cell-based
Conditions: 72 h, 3 days of culture
Protocol: as §1, §2, §3
Cell line G-401 (ATCC, No. CRL-1441) was cultured in 10% fetal bovine serum-containing McCoy's 5a medium (+P/S).

Q: `COc1ccc2c(CCc3ccccc3)c3[n+](cc2c1OC)CCc1cc2c(cc1-3)OCO2` [compound AB31780] was tested. Which IC50 did it give?
A: The IC50 was 880 nM.

Q: With `COc1ccc2c(CCCc3ccccc3)c3[n+](cc2c1OC)CCc1cc2c(cc1-3)OCO2` [compound AB31781] as the compound, how does the IC50 read?
A: The IC50 was 370 nM.

Tested on: sh-DNMT1 NCI-H82 cell (DNMT1 knocked down NCI-H82)
Assay: Cell viability assay (Promega CellTiter-Glo), inhibitory effect on sh-DNMT1 NCI-H82 cell
Assay type: cell-based
Conditions: Homo sapiens, NCI-H82 with DNMT1 knocked down by shRNA
Protocol: (§6) The role of expression level of NNMT gene and DNMT1 in the sensitivity of NCI-H82 cell to the compounds prepared in the Examples of the present invention was determined
(§7) The expression of NNMT protein in NCI-H82 cell was overexpressed by inserting the NNMT gene into NCI-H82 cell using a viral vector, and the NNMT protein-overexpressing NCI-H82 cell (ov-NNMT NCI-H82 cell) was obtained. The expression of DNMT1 in NCI-H82 cell was knocked down transfecting (the by shRNA nucleotide sequence of shRNA was […] TTTTTG (SEQ ID No: 2)) using a viral vector, and the NCI-H82 cell with low expression of DNMT1 protein (sh-DNMT1 NCI-H82 cell) was obtained. The control NCI-H82 cell (Con-NCI-H82 cell) was obtained by transfecting NCI-H82 cell with empty virus vector without carrying NNMT gene and shRNA. The expressing content of NNMT protein and DNMT1 protein in the Con-NCI-H82 cell, the expressing content of NNMT protein in the ov-NNMT NCI-H82 cell, and the expressing content of DNMT1 protein in the sh-DNMT1 NCI-H82 cell were detected using Western Blot assay (as shown in FIG. 15 and FIG. 16), it could be seen from FIG. 15 and FIG. 16 that the NNMT protein was overexpressed in the ov-NNMT NCI-H82 cell and the expression of DNMT1 protein was knocked down (i.e, low expression) in the sh-DNMT1 NCI-H82 cell compared with the expression level of NNMT protein and DNMT protein in the Con-NCI-H82 cell.

Q: Which IC50 does the source give for `COc1ccc2c(CCc3ccccc3)c3[n+](cc2c1OC)CCc1cc2c(cc1-3)OCO2` [compound AB31780] here?
A: Its IC50 is 1980 nM.

Q: For `COc1ccc2c(CCCc3ccccc3)c3[n+](cc2c1OC)CCc1cc2c(cc1-3)OCO2` [compound AB31781], which IC50 is on record?
A: The IC50 was 1420 nM.

Tested on: GB-1 (human brain glioblastoma cell)
Assay: Cell viability assay (Promega CellTiter-Glo), inhibitory effect on GB-1
Assay type: cell-based
Conditions: 72 h, 3 days of culture, Table 3, read-out: inhibitory effect on GB-1 (IC50)
Protocol: as §1, §2, §3
Cell line GB-1 (JCRB, No. IFO50489) was cultured in 10% fetal bovine serum-containing DMEM medium (+P/S).
as §4, §5

Q: For `COc1ccc2c(CCc3ccccc3)c3[n+](cc2c1OC)CCc1cc2c(cc1-3)OCO2` [compound AB31780], which IC50 is on record?
A: Its IC50 is 12600 nM.

Q: `COc1ccc2c(CCCc3ccccc3)c3[n+](cc2c1OC)CCc1cc2c(cc1-3)OCO2` [compound AB31781] was tested. Which IC50 did it give?
A: The IC50 was 8600 nM.

Same assay, conditions: 72 h, 3 days of culture, Table 4, read-out: inhibitory effect on brain cell line GB-1 (IC50)

Q: With `COc1ccc2c(CCc3ccccc3)c3[n+](cc2c1OC)CCc1cc2c(cc1-3)OCO2` [compound AB31780] as the compound, how does the IC50 read?
A: Its IC50 is 12600 nM.

Q: Which IC50 does the source give for `COc1ccc2c(CCCc3ccccc3)c3[n+](cc2c1OC)CCc1cc2c(cc1-3)OCO2` [compound AB31781] here?
A: The IC50 was 8600 nM.

Tested on: D341 Med (cerebellar medulloblastoma cell)
Assay: Cell viability assay (Promega CellTiter-Glo), inhibitory effect on D341 Med
Assay type: cell-based
Conditions: Homo sapiens, 72 h, 3 days of culture, read-out: inhibitory effect on brain cell line D341 Med (IC50)
Protocol: as §4, §5, §3
Cell line D341 Med (ATCC, No. HTB-187) was cultured in 20% fetal bovine serum-containing EMEM medium (+P/S).

Q: How did the IC50 turn out when `COc1ccc2c(CCc3ccccc3)c3[n+](cc2c1OC)CCc1cc2c(cc1-3)OCO2` [compound AB31780] was run?
A: Its IC50 is 1880 nM.

Q: `COc1ccc2c(CCCc3ccccc3)c3[n+](cc2c1OC)CCc1cc2c(cc1-3)OCO2` [compound AB31781] was tested. Which IC50 did it give?
A: The IC50 was 820 nM.

Tested on: 786-O (clear cell renal cell adenocarcinoma cell)
Assay: Cell viability assay (Promega CellTiter-Glo), inhibitory effect on 786-O
Assay type: cell-based
Conditions: Homo sapiens, 786-0, 72 h, 3 days of culture
Protocol: as §1, §2, §3
Cell line 786-0 (ATCC, No. CRL-1932) was cultured in 10% fetal bovine serum-containing RPMI1640 medium (+P/S).

Q: `COc1ccc2c(CCc3ccccc3)c3[n+](cc2c1OC)CCc1cc2c(cc1-3)OCO2` [compound AB31780] was tested. Which IC50 did it give?
A: The IC50 was 8050 nM.

Q: For `COc1ccc2c(CCCc3ccccc3)c3[n+](cc2c1OC)CCc1cc2c(cc1-3)OCO2` [compound AB31781], which IC50 is on record?
A: Its IC50 is 5340 nM.

Tested on: MDA-MB-453 (breast cancer cell)
Assay: Cell viability assay (Promega CellTiter-Glo), inhibitory effect on MDA-MB-453
Assay type: cell-based
Conditions: Homo sapiens, 72 h, 3 days of culture
Protocol: as §1, §2, §3
Cell line MDA-MB-453 (ATCC, No. HTB-131) was cultured in 10% fetal bovine serum-containing Leibovitz's L-15 medium (+P/S).

Q: With `COc1ccc2c(CCc3ccccc3)c3[n+](cc2c1OC)CCc1cc2c(cc1-3)OCO2` [compound AB31780] as the compound, how does the IC50 read?
A: The IC50 was 900 nM.

Q: How did the IC50 turn out when `COc1ccc2c(CCCc3ccccc3)c3[n+](cc2c1OC)CCc1cc2c(cc1-3)OCO2` [compound AB31781] was run?
A: The IC50 was 760 nM.

Tested on: Con-NCI-H82 cell (NCI-H82 transfected with empty virus vector)
Assay: Cell viability assay (Promega CellTiter-Glo), inhibitory effect on Con-NCI-H82 cell
Assay type: cell-based
Conditions: Homo sapiens; NCI-H82 transfected with empty virus vector (control); CellTiter-Glo; read-out: inhibitory effect on Con-NCI-H82 (IC50)
Protocol: as §6, §7

Q: Which IC50 does the source give for `COc1ccc2c(CCc3ccccc3)c3[n+](cc2c1OC)CCc1cc2c(cc1-3)OCO2` [compound AB31780] here?
A: Its IC50 is 660 nM.

Q: `COc1ccc2c(CCCc3ccccc3)c3[n+](cc2c1OC)CCc1cc2c(cc1-3)OCO2` [compound AB31781] was tested. Which IC50 did it give?
A: The IC50 was 330 nM.

Tested on: ov-NNMT NCI-H82 cell (NNMT protein-overexpressing NCI-H82)
Assay: Cell viability assay (Promega CellTiter-Glo), inhibitory effect on ov-NNMT NCI-H82 cell
Assay type: cell-based
Conditions: Homo sapiens
Protocol: as §6, §7

Q: With `COc1ccc2c(CCc3ccccc3)c3[n+](cc2c1OC)CCc1cc2c(cc1-3)OCO2` [compound AB31780] as the compound, how does the IC50 read?
A: The IC50 was 1520 nM.

Q: How did the IC50 turn out when `COc1ccc2c(CCCc3ccccc3)c3[n+](cc2c1OC)CCc1cc2c(cc1-3)OCO2` [compound AB31781] was run?
A: Its IC50 is 1160 nM.

Tested on: CFPAC-1 (human pancreatic cancer cell)
Assay: Cell viability assay (Promega CellTiter-Glo), inhibitory effect on CFPAC-1
Assay type: cell-based
Conditions: 72 h, 3 days of culture
Protocol: as §1, §2, §3
Cell line CFPAC-1 (ATCC, No. CRL-1918) was cultured in 10% fetal bovine serum-containing IMDM medium (+P/S).

Q: `COc1ccc2c(CCc3ccccc3)c3[n+](cc2c1OC)CCc1cc2c(cc1-3)OCO2` [compound AB31780] was tested. Which IC50 did it give?
A: Its IC50 is 17900 nM.

Q: For `COc1ccc2c(CCCc3ccccc3)c3[n+](cc2c1OC)CCc1cc2c(cc1-3)OCO2` [compound AB31781], which IC50 is on record?
A: Its IC50 is 11300 nM.

Tested on: SW48 (human colon adenocarcinoma cell)
Assay: Cell viability assay (Promega CellTiter-Glo), inhibitory effect on SW48
Assay type: cell-based
Conditions: 72 h, 3 days of culture
Protocol: as §1, §2, §3
Cell line SW48 (ATCC, No. CCL-231) was cultured in 10% fetal bovine serum-containing Leibovitz's L-15 medium (+P/S).

Q: How did the IC50 turn out when `COc1ccc2c(CCc3ccccc3)c3[n+](cc2c1OC)CCc1cc2c(cc1-3)OCO2` [compound AB31780] was run?
A: Its IC50 is 790 nM.

Q: How did the IC50 turn out when `COc1ccc2c(CCCc3ccccc3)c3[n+](cc2c1OC)CCc1cc2c(cc1-3)OCO2` [compound AB31781] was run?
A: The IC50 was 400 nM.
